Measured values as given in patent US9169252B2 (BRISTOL-MYERS SQUIBB COMPANY, priority 2014, dated 2015).
Where two headings read alike, the source gives them in different places.

How the values were obtained:
[1] = test system: TLR2 induced IL-6 in peripheral blood mononuclear cells (PBMCs); assay: PBMC TLR2 Induced IL-6 Assay; assay type: cell-based, human; conditions: IL-6 by ELISA; for EC50: read-out: Cell EC50; for IC50: read-out: Cell IC50
How it was run: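 Lipoteichoic acid at 10 µg/ml served as TLR2 stimulus for 5 hours, following a 30-minute compound pretreatment at 37° C. Cells were Ficoll-isolated human PBMCs, 250000 cells/well, cultured in RPMI plus 10% heat-inactivated FCS.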

IRAK4 = IRAK4 (Homo sapiens (Human), UniProt Q9NWZ3); assay: IRAK4 Inhibition Assay; assay type: biochemical; conditions: ATP 500 μM, read-out: IRAK4 IC50
Sequence of IRAK4 (Q9NWZ3 whole entry, species assumed): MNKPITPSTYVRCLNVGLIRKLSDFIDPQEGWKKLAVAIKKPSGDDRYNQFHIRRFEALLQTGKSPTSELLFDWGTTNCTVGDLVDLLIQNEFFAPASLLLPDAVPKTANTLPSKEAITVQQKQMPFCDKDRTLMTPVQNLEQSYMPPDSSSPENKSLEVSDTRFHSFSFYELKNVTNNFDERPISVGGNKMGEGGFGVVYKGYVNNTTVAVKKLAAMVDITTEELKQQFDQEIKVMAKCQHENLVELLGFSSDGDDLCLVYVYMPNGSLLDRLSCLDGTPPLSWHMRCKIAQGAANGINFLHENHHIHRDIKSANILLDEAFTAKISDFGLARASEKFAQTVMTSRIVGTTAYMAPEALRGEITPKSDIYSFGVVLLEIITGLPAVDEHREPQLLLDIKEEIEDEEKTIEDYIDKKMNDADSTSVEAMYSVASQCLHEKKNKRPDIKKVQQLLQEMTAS
How it was run: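 IRAK4 combined with fluorescent substrate and compounds, reacted 60 min at room temperature, stopped with 35 mM EDTA. Substrate and phosphorylated product separated electrophoretically on a Caliper LabChip 3000 mobility-shift reader.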

[2] = Homo sapiens, PBMC, PBMC TLR2 Induced IL-6 Assay, lipoteichoic acid stimulation
[3] = Homo sapiens, PBMC, human PBMCs, lipoteichoic acid stimulated
[4] = PBMC TLR2 Induced IL-6 Assay, lipoteichoic acid stimulation

SMILES | EC50 [1, 2] [nM] | IC50 (IRAK4; IRAK4 Inhibition Assay) [nM] | IC50 (IRAK4; IRAK4 0.6 nM) [nM] | also measured
CC(=O)OC(C)(C)C(=O)NCCNC(=O)c1cnc(-n2ccc3cc(C#N)cnc32)cc1NC(C)C [Example 125, 1-((2-(6-(5-Cyano-1H-pyrrolo[2,3-b]pyridin-1-yl)-4-(isopropylamino)nicotinamido)ethyl)amino)-2-methyl-1-oxopropan-2-yl acetate] | 202 | 6.7 |  | 
CC(C)Nc1cc(-n2ncc3cc(Cl)cnc32)ncc1C(=O)NC[C@@H](F)C(C)(C)F [Example 330] |  | 4.3 |  | IC50 [1, 2]: 512 nM
COC(=O)N1CC[C@@H](Nc2cc(-n3ccc4cc(C#N)cnc43)ncc2C(=O)NC[C@@H](F)C(C)(C)O)C1 [Example 474] |  |  | 1.2 | EC50 [1, 3]: 77 nM; IC50 [1, 3]: 315 nM
CC(C)(F)Cn1cc(Nc2cc(-n3ncc4cc(C#N)cnc43)ncc2C(=O)NC[C@@H](F)C(C)(C)O)cn1 [Example 356] |  | 2.4 |  | IC50 [1, 2]: 154 nM
CC(F)(F)Cn1cc(Nc2cc(-n3ncc4cc(Cl)cnc43)ncc2C(=O)NC[C@@H](F)C(C)(C)O)cn1 [Example 369] |  | 1.9 |  | IC50 [1, 2]: 32 nM
C[C@@H](CO)Nc1cc(-n2ccc3cc(C#N)cnc32)ncc1C(=O)NCCNS(C)(=O)=O [Example 478] |  |  | 4.7 | EC50 [1, 3]: 462 nM; IC50 [1, 3]: 805 nM
CC(C)(O)[C@H](F)CNC(=O)c1cnc(-n2ccc3cc(C#N)cnc32)cc1Nc1ccc2ncoc2c1 [Example 421] |  |  | 1.9 | IC50 [1, 3]: 167 nM
CC(C)Nc1cc(-n2ncc3cc(C#N)cnc32)ncc1C(=O)NCC(F)C1(O)COC1 (stereo not drawn) [Example 248] |  | 3.6 |  | IC50 [1, 4]: 554 nM
CC(C)(O)[C@H](F)CNC(=O)c1cnc(-n2ccc3cc(Cl)cnc32)cc1NC1CCOCC1 [Example 32, (R)-6-(5-chloro-1H-pyrrolo[2,3-b]pyridin-1-yl)-N-(2-fluoro-3-hydroxy-3-methylbutyl)-4-((tetrahydro-2H-pyran-4-yl)amino) nicotinamide] | 75 | 1.9 |  | IC50 [1, 2]: 562 nM
CC(C)(O)[C@H](F)CNC(=O)c1cnc(-n2ncc3cc(C#N)cnc32)cc1NC1CCC1 [Example 145, (R)-6-(5-cyano-1H-pyrazolo[3,4-b]pyridin-1-yl)-4-(cyclobutylamino)-N-(2-fluoro-3-hydroxy-3-methylbutyl)nicotinamide] | 61 | 4.5 |  | 
CC(C)(O)[C@H](F)CNC(=O)c1cnc(-n2ncc3cc(F)cnc32)cc1NC1CCOCC1 [Example 562] |  |  | 12.5 | EC50 [1, 3]: 255 nM
CC(C)Nc1cc(-n2ncc3cc(C#N)c(N)nc32)ncc1C(=O)NCCC1CC1 [Example 299] |  | 6.3 |  | IC50 [1, 2]: 252 nM
CC(C)(O)[C@H](F)CNC(=O)c1cnc(-n2ncc3cc(C#N)cnc32)cc1NC1CCN(c2ncc(F)cn2)CC1 [Example 540] |  |  | 3 | IC50 [1, 3]: 158 nM
CC(C)Nc1cc(-n2ncc3cncnc32)ncc1C(=O)NC[C@@H](F)C(C)(C)O [Example 144, (R)—N-(2-fluoro-3-hydroxy-3-methylbutyl)-4-(isopropylamino)-6-(1H-pyrazolo[3,4-d]pyrimidin-1-yl)nicotinamide] | 148 | 6.2 |  | 
CCOCCNC(=O)c1cnc(-n2ncc3cc(C#N)cnc32)cc1Nc1cnn(CC(F)F)c1 [Example 392] |  | 7.1 |  | IC50 [1, 2]: 16 nM
CC(C)Nc1cc(-n2ccc3cc(C#N)cnc32)ncc1C(=O)N[C@H]1CC[C@](F)(c2nccn2C)CC1 [Example 181, 6-(5-cyano-1H-pyrrolo[2,3-b]pyridin-1-yl)-N-((1 s,4s)-4-fluoro-4-(1-methyl-1H-imidazol-2-yl)cyclohexyl)-4-(isopropylamino) nicotinamide] | 152 | 4.3 |  | 
CC(=O)N[C@H]1CC[C@H](NC(=O)c2cnc(-n3ccc4cc(C#N)cnc43)cc2NC2CCOCC2)CC1 [Example 88, N-((trans)-4-acetamidocyclohexyl)-6-(5-cyano-1H-pyrrolo[2,3-b]pyridin-1-yl)-4-((tetrahydro-2H-pyran-4-yl)amino)nicotinamide] | 345 | 7.1 |  | 
CC(F)[C@H](C)Nc1cc(-n2ncc3cc(C#N)cnc32)ncc1C(=O)NC[C@@H](F)C(C)(C)O (single isomer, unassigned) [Example 202] | 131 | 10.6 |  | 
N#Cc1cc2cnn(-c3cc(NC4COC4)c(C(=O)NCCC4CC4)cn3)c2nc1N [Example 558] |  |  | 6.1 | IC50 [1, 3]: 615 nM
CC(C)Nc1cc(-n2ncc3cc(C#N)cnc32)ncc1C(=O)NC[C@@H](F)C(=O)N1CCOCC1 [Example 256] |  | 14.7 |  | IC50 [1, 2]: 148 nM
CC(C)(O)[C@H](F)CNC(=O)c1cnc(-n2ncc3cc(C#N)cnc32)cc1Nc1cccc(C#N)c1 [Example 522] |  |  | 2.6 | EC50 [1, 3]: 177 nM

SMILES | EC50 [1, 2] [nM] | IC50 (IRAK4; IRAK4 Inhibition Assay) [nM] | IC50 (IRAK4; IRAK4 0.6 nM) [nM] | also measured
CC(C)Nc1cc(-n2ncc3cc(C#N)cnc32)ncc1C(=O)NCCC1(O)CCC(F)(F)CC1 [Example 279] |  | 6.5 |  | IC50 [1, 2]: 247 nM
Cn1cc(Nc2cc(-n3ccc4cc(C#N)cnc43)ncc2C(=O)NC[C@@H](F)C(C)(C)O)cn1 [Example 399] |  |  | 1.3 | IC50 [1, 3]: 24 nM
CS(=O)(=O)NCCNC(=O)c1cnc(-n2ccc3cc(C#N)cnc32)cc1NC1CCOCC1 [Example 479] |  |  | 5.7 | EC50 [1, 3]: 144 nM; IC50 [1, 3]: 835 nM
CC(C)(O)[C@H]1CC[C@H](NC(=O)c2cnc(-n3ncc4cc(C#N)cnc43)cc2NC2COC2)CC1 [Example 555] |  |  | 7 | IC50 [1, 3]: 47 nM
CC(C)(O)CCNC(=O)c1cnc(-n2ncc3cc(C#N)cnc32)cc1NC1CCOCC1 [Example 151, 6-(5-cyano-1H-pyrazolo[3,4-b]pyridin-1-yl)-N-(3-hydroxy-3-methylbutyl)-4-((tetrahydro-2H-pyran-4-yl)amino)nicotinamide] | 443 | 14.8 |  | 
CCn1cc(Nc2cc(-n3cnc4cc(Cl)cnc43)ncc2C(=O)NC[C@@H](F)C(C)(C)O)cn1 [Example 361] |  | 2.9 |  | IC50 [1, 2]: 206 nM
COc1cnc(NC(=O)c2cnc(-n3ncc4cc(C#N)cnc43)cc2NC(C)C)cn1 [Example 564] |  |  | 20.1 | EC50 [1, 3]: 659 nM
CC(C)(O)[C@H](F)CNC(=O)c1cnc(-n2ncc3cc(F)cnc32)cc1NC1CC1 [Example 156, (R)-4-(cyclopropylamino)-6-(5-fluoro-1H-pyrazolo[3,4-b]pyridin-1-yl)-N-(2-fluoro-3-hydroxy-3-methylbutyl)nicotinamide] | 231 | 9.5 |  | 
CC(C)(O)[C@H](F)CNC(=O)c1cnc(-n2ccc3cc(C#N)cnc32)cc1Nc1ccc(-n2cncn2)cc1 [Example 68] | 30 | 2.1 |  | 
CC(C)Nc1cc(-n2ccc3cc(CNC(=O)Cc4ccccc4)cnc32)ncc1C(=O)NC[C@@H](F)C(C)(C)O [Example 515] |  |  | 2.2 | IC50 [1, 3]: 542 nM
[2H]C([2H])([2H])OC(C)(C)[C@H](F)CNC(=O)c1cnc(-n2ncc3cc(C#N)cnc32)cc1NC(C)C [Example 210] | 206 | 3.1 |  | 
CC(C)(O)[C@H](F)CNC(=O)c1cnc(-n2ccc3cncnc32)cc1NC1CCOCC1 [Example 40, (R)—N-(2-fluoro-3-hydroxy-3-methylbutyl)-6-(7H-pyrrolo[2,3-d]pyrimidin-7-yl)-4-((tetrahydro-2H-pyran-4-yl)amino)nicotinamide] | 175 | 2 |  | IC50 [1, 2]: 175 nM
CC(C)(O)[C@H](F)CNC(=O)c1cnc(-n2ncc3cc(C#N)cnc32)cc1Nc1cnn(-c2ncc(F)cn2)c1 [Example 411] |  |  | 1.6 | EC50 [1, 3]: 51 nM
CC(C)Nc1cc(-n2ncc3cc(C#N)cnc32)ncc1C(=O)NCCC(C)NS(C)(=O)=O (stereo not drawn) [Example 264] |  | 6.5 |  | IC50 [1, 2]: 338 nM
CC(O)CCNC(=O)c1cnc(-n2ncc3cc(C#N)cnc32)cc1NC(C)C (stereo not drawn) [Example 239] |  | 5.3 |  | EC50 [1, 4]: 211 nM; IC50 [1, 4]: 775 nM
CC(C)(O)[C@H](F)CNC(=O)c1cnc(-n2ccc3cc(C#N)cnc32)cc1Nc1ccc2nn[nH]c2c1 [Example 436] |  |  | 1.8 | EC50 [1, 3]: 165 nM
CNC(=O)[C@H]1CC[C@H](NC(=O)c2cnc(-n3ncc4cc(C#N)cnc43)cc2N[C@@H](C)CF)CC1 [Example 122, 6-(5-cyano-1H-pyrazolo[3,4-b]pyridin-1-yl)-4-(((S)-1-fluoropropan-2-yl)amino)-N-((1r,4S)-4-(methylcarbamoyl)cyclohexyl)nicotinamide] | 501 | 16 |  | 
CC(C)(O)[C@H](F)CNC(=O)c1cnc(-n2ccc3cc(C(N)=O)cnc32)cc1NC1CCC1 [Example 124, (R)-1-(4-(Cyclobutylamino)-5-((2-fluoro-3-hydroxy-3-methylbutyl)carbamoyl)pyridin-2-yl)-1H-pyrrolo[2,3-b]pyridine-5-carboxamide] | 119 | 4.8 |  | 
CCCCNC(=O)NCc1cnc2c(ccn2-c2cc(NC(C)C)c(C(=O)NC[C@@H](F)C(C)(C)O)cn2)c1 [Example 516] |  |  | 8.6 | IC50 [1, 3]: 414 nM
CC(C)COC(=O)NCc1cnc2c(ccn2-c2cc(NC(C)C)c(C(=O)NC[C@@H](F)C(C)(C)O)cn2)c1 [Example 498] |  |  | 5.7 | IC50 [1, 3]: 248 nM
COC(C)(C)CNc1cc(-n2ncc3cc(C#N)cnc32)ncc1C(=O)NC[C@@H](F)C(C)(C)O [Example 593] |  |  | 19.6 | IC50 [1, 3]: 408 nM
